Source: patent publication US10328075B2, “Method of treatment and compounds for use therein” (Baker Heart and Diabetes Institute, priority 2015, dated 2019)
No end group written: not given here.

Test system: myocardial I-R injury in C57BL/6 mice
Assay: Myocardial I-R in mice: cardiac necrosis after 24 h reperfusion (infarct size, plasma cTnI)
Assay type: in vivo, mouse
Details: for Effect on plasma cTnI levels / Reduction of infarct size: small molecules 50 mg/kg i.p., Ac2-26 1 mg/kg i.v.; for Cardioprotection: Infarct size: Table 9; for Cardioprotection: isolated cardio-myocytes in vitro & intact heart subjected to MI in vivo
Protocol: Male C57BL/6 mice were breed and housed in the AMREP Animal Centre and maintained under a 12 h light/dark cycle. After anaesthesia (i.p., ketamine 80 mg/kg, xylazine 20 mg/kg and atropine 1.2 mg/kg), mice were randomly assigned to 24 h, 48 h and 7 days reperfusion groups and underwent reversible left arterial descending (LAD) ligation as described (Gao XM, 2011; JMCC, 50; Gao XM, 2000, JMCC). Following sedation, mice were intubated and ventilated (Harvard apparatus, MA, USA) with room air mixed with oxygen (tidal volume 0.25 mL, 150 breath/min), and placed on a heating pad. A left thoractomy will be made via the ˜third intercostal space, where the beating heart was located.
The LAD was reversibly ligated using 7-0 silk suture with a slipknot enclosing two releasing rings. Regional ischaemia was confirmed by pale colour of the ligated area. Air was then evacuated from the chest, the cavity was closed and normal respiration was restored. After 40-60 min of ischaemia, blood flow through the left coronary artery was re-established by releasing the slipknot. Sham-operated mice underwent identical surgical procedures except the coronary arteries were not ligated. Three cohorts of mice were scheduled. Cohort 1 was subjected to 40 min ischaemic-24 h reperfusion for the assessment of cardiac necrosis. Cohort 2 was subjected to 60 min occlusion with 48 h reperfusion for the quantification of cardiac and systemic inflammation. The last cohort was subjected to 7 d reperfusion and early cardiac fibrosis was assessed.
Treatment with study drugs: Animals were randomly assigned to different groups and all treatments were administrated 5 min prior to reperfusion of the LAD. The peptide Ac2-26 (1 mg kg^−1) (Chemieliva, Chongqing, China) and its vehicle (10% dimethyl sulfoxide (DMSO) in saline) were intravenously (i.v.) injected via the tail vein. […] Mice then received drug or vehicle injections daily until the experimental endpoint. The two different vehicles groups reflect different study drug solubility and administration routes.
Assessment of cardiac necrosis: The optimal time point for assessment of cardiac necrosis is 24 h reperfusion after an ischaemic insult. Plasma levels of cTnI were determined using a commercially available, high-sensitivity rat cTnI ELISA kit (Life Diagnostic Inc., Pennsylvania, USA) as per the manufacturer's instructions. To evaluate the size of the infarction in relation to the area-at-risk (AAR), infarct size (IS) and LV size, 2,3,5-triphenyltetrazolium chloride (TTC) staining was performed. The LAD was tightly re-occluded in anaesthetised mice after 24 h of reperfusion and Evans blue dye (0.1 mL, 5%) was injected as a bolus into the LV. The heart was then excised and rinsed in cold saline to remove excess dye. The LV was isolated, frozen at −20° C. and then cut transversely into six to seven slices at 1.0 mm thickness. LV slices were incubated for 45 min with 1.5% TTC solution at 37° C. The presence of Evans blue indicated perfusion, whereas its absence indicated lack of perfusion to that region, whereas the brick red areas indicate viable myocardium, white or yellowish regions demarcate necrotic tissue. The slices were mounted between glass slides, and images were acquired digitally using […] microscope (Leica Wild M3B, Heerbrugg, Switzerland) coupled with digital camera (Nikon Cool-PIX4500, Tokyo, Japan). The images were analyzed using Image J analysis program (Version 1.45S, National Institute of Health, USA). The non-ischaemic zone (blue area), area-at-risk zone (AAR, red and white or yellow areas), infarct zone (white or yellow areas) and total LV were outlined and quantified blindly. Infarct size was calculated as percentage of infarct zone/risk zone.
Animal Surgery: Adult C57BL/6 mice were randomly assigned to myocardial ischemia-reperfusion (I-R) injury or sham in vivo. […]

[1] = mice, 40 min ischaemia, 24 h reperfusion

| Molecule | Effect on cardiac necrosis (cardioprotective action) 24 h post I-R (mice, 50 mg/kg i.p.) | Effect on infarct size (in words) (mice, 40 min ischaemia, 24 h reperfusion, 50 mg/kg i.p.) | Effect on plasma cTnI levels (mice, 24 h reperfusion) | Cardioprotection: Infarct size (mice) | Cardioprotection | Reduction of infarct size [1] [%] | Reduction of infarct size (mice, 40 min ischaemia, 24 h reperfusion, listed as Cmpd17b) [%] |
| --- | --- | --- | --- | --- | --- | --- | --- |
| CC(C)C1C(NC(=O)Nc2ccc(Cl)cc2)C(=O)N(c2ccccc2)N1C (stereo not shown) [BIDI-002] | lacked cardioprotective actions | not | not seen | – | – | – | – |
| COc1cccc(Cc2cc(C)nn(C(C)C(=O)Nc3ccc(Br)cc3)c2=O)c1 (stereo not shown) [BIDI-001, N-(4-bromophenyl)-2-[5-(3-methoxybenzyl)-3-methyl-6-oxo-6H-pyridazin-1-yl]-propionamide] | reduces cardiac necrosis | – | significantly reduced | ↓↓ | conferred cardioprotection | ~34 | ~35 |
| Cc1cc(Cc2cccnc2)c(=O)n(CC(=O)Nc2ccc(Cl)cc2)n1 [MIPS-0010396] | – | – | – | ↓↓ | confers cardioprotection | – | – |
| Ac2-26: Annexin-A1 N-terminal peptide, peptide ANX-A1 mimetic (Ac-AMVSEFLKQAWFIENEEQEYVQTVK; UniProt P04083 2-26, looked up, fragment) | – | – | non-significant trend | – | – | ~25 | – |
